Values after ≈ are worked out from the molar mass of the structure shown. Where two headings read alike, the source gives them in different places. Bridge positions count the residues as written; N and C are the ends. Peptide text beside a SMILES is read from it.
Key:
[1] = system: S. aureus; assay: Membrane fluidity assay, Laurdan GP; assay type: cell-based, Staphylococcus aureus; details: 2 × MIC; 10 µM Laurdan; untreated 0.22
Description: The final concentration of 10 µM Laurdan was used to detect the effect of AP138L-arg26 on bacterial cell membrane fluidity (Shi et al. [2022]). Briefly, (1) co-incubation of bacteria with Laurdan; (2) the stained bacteria are co-incubated with the peptide; (3) spectrophotometer (Tecan, Männedorf, Switzerland) detection. The calculation formula: generalized polarization (GP) = (I435 − I490)/(I435 + I490).

[2] = system: S. aureus CVCC 546; assay: Artificial gastric juice stability, MIC after treatment; assay type: in vitro ADME, Staphylococcus aureus
[3] = system: S. aureus CVCC 546; details: for FIC: FIC = MICc/MICa
Description: The synergistic effects of AP138L-arg26 with different antibiotics were evaluated using a checkerboard assay. The synergistic effect was calculated using the FICI as follows: FICI = FIC of AP138L-arg26 + FIC of antibiotic; FIC = MICc/MICa, where MICc is the MIC of the peptide and antibiotic in combination, and MICa is the MIC of the peptide/antibiotic alone (Blier et al. [2010]). Three parallel experiments were performed for each group. The efficacy of combination therapy was defined as FICI ≤ 0.5, 0.5 < FICI ≤ 1, 1 < FICI ≤ 4, and FICI > 4 indicating synergy, addition, no difference, and antagonism, respectively.

[4] = system: selected standard and clinical Gram-positive bacteria; assay: MIC/MBC summary over the panel of strains; assay type: cell-based, S. aureus, S. epidermidis, S. dysgalactiae, S. agalactiae
Description: To determine the MIC values of AP138L-arg26, we used the broth microdilution technique as previously described (Andrews. [2001]; Wiegand et al. [2008]). In brief, AP138L-arg26 peptide were diluted from 1280 to 2.5 µg/mL and added to a 96-cells plate with 10 µL per well. The bacteria in the logarithmic stage were diluted to 10^5 CFU/mL with 90 µL per well. […] The MBC method was also based on the CLSI 2021 guidelines.

[5] = system: S. aureus CVCC 546; assay: Thermal stability, MIC after treatment; assay type: physicochemical, Staphylococcus aureus
[6] = system: ICR mice; assay: Acute toxicity in mice; assay type: in vivo, mouse
Description: AP138L-arg26 was administrated by intraperitoneal injection (n = 4 per group, 10 mg/kg, body weight 25 g) every day for 1 week (Shi et al. [2022]). After 7 days, the mice were euthanized to collect anticoagulant whole-blood and tissues (liver, spleen, kidney, and lung), which were used for whole blood and biochemical detection, or tissue sections (hematoxylin-eosin (HE) staining), respectively.

[7] = system: S. aureus; assay: Intracellular LDH activity; assay type: cell-based, Staphylococcus aureus; details: 6 h, treated cells/the control, n = 3
Description: As disruption of the cell membrane structure leads to the release of LDH from the cytoplasm into the culture medium, the detection of LDH in bacteria can further reveal the antibacterial mechanism (Shi et al. [2022]). Briefly, S. aureus cells were co-incubated with AP138L-arg26 for 6 h. Later, the pellets were collected and sonicated (3 s/10 s, 30 times). The intracellular LDH activity was detected using an Infinite M200 Microplate reader (Tecan, Luminescence signals). The calculated results of LDH% = treated cells/the control.

[8] = system: intracellular S. aureus CVCC 546 in mouse macrophages RAW264.7 and bovine endometrial epithelial cells BNCC359233; assay: Intracellular antibacterial activity; assay type: cell-based, Staphylococcus aureus; details: 5 × MIC; n = 3
Description: The method of intracellular bactericidal effect was described previously (Wang et al. [2018]). Only the number of cells and bacteria changed from 2.5 × 10^5 to 2 × 10^5 cells/mL.

[9] = system: S. aureus CVCC 546; assay: Salt stability, MIC after treatment; assay type: physicochemical, Staphylococcus aureus; details: then MIC assay
[10] = system: S. aureus ATCC 43300; assay: Post-antibiotic effect (PAE) assay; assay type: cell-based, Staphylococcus aureus
Description: The method of PAE of AP138L-arg26 against MRSA ATCC 43300 or S. aureus CVCC 546 was described previously (Wang et al. [2018]). The formula is PAE = T − C (T is the time required for the number of colonies in the sample treatment group to increase by tenfold, and C is the time required for the untreated group).

## CC[C@H](C)[C@@H]1NC(=O)[C@H](CO)NC(=O)[C@H](CCCCN)NC(=O)[C@@H]2CSSC[C@@H](C(=O)N[C@@H](Cc3ccc(O)cc3)C(=O)O)NC(=O)[C@H](CCCCN)NC(=O)[C@@H]3CSSC[C@H](NC(=O)[C@H](CCCNC(=N)N)NC(=O)[C@H](CC(C)C)NC(=O)[C@H](CC(=O)O)NC(=O)[C@H](CC(=O)O)NC(=O)[C@H](CCC(=O)O)NC(=O)[C@H](CO)NC(=O)[C@H](Cc4c[nH]c5ccccc45)NC(=O)[C@@H]4CCCN4C(=O)CNC(=O)[C@H](CC(N)=O)NC(=O)[C@@H](NC(=O)CNC(=O)[C@H](Cc4ccccc4)NC(=O)CN)CSSC[C@H](NC(=O)[C@H](Cc4ccc(O)cc4)NC(=O)CNC(=O)CNC(=O)[C@H](CCCNC(=N)N)NC(=O)[C@H](Cc4ccc(O)cc4)NC(=O)CNC(=O)[C@H](CCCCN)NC1=O)C(=O)N[C@@H](C)C(=O)N[C@@H](CCCCN)C(=O)NCC(=O)NCC(=O)N[C@@H](Cc1ccccc1)C(=O)N[C@@H](C(C)C)C(=O)N3)C(=O)N[C@@H](Cc1c[nH]cn1)C(=O)N[C@@H](CCCNC(=N)N)C(=O)N[C@@H](Cc1c[nH]cn1)C(=O)N2 [AP138L-arg26] (H-GFGCNGPWSEDDLRCHRHCKSIKGYRGGYCAKGGFVCKCY-OH; disulfide 4-30, 15-37, 19-39; N-terminus and C-terminus assumed)
[1]
  Laurdan GP: 0.18
[2]; artificial gastric juice, MIC assay
  antimicrobial activity after gastric juice: unaffected
[2]; peptide in artificial gastric juice for 0.25 h, then MIC assay
  MIC, Gastric juice (0.25 h): 4 µg/mL (≈ 0.898 µM)
[2]; peptide in artificial gastric juice for 0.5 h, then MIC assay
  MIC, Gastric juice (0.5 h): 4 µg/mL (≈ 0.898 µM)
[2]; peptide in artificial gastric juice for 1 h, then MIC assay
  MIC, Gastric juice (1 h): 4 µg/mL (≈ 0.898 µM)
[2]; peptide in artificial gastric juice for 2 h, then MIC assay
  MIC, Gastric juice (2 h): 8 µg/mL (≈ 1.8 µM)
[3]; combination AP138L-arg26-Streptomycin sulfate
  FIC: 0.5
[3]; combination AP138L-arg26-ampicillin
  FIC: 1
[3]; combination AP138L-arg26-ceftiofur sodium
  FIC: 0.0625
[3]; MIC of peptide/antibiotic alone, three parallel experiments
  MICa: 4 µg/mL
[3]; in combination AP138L-arg26-Streptomycin sulfate
  MICc: 2 µg/mL
[3]; in combination AP138L-arg26-ampicillin
  MICc: 4 µg/mL
[3]; in combination AP138L-arg26-ceftiofur sodium
  MICc: 0.25 µg/mL
[4]; Streptococcus strains
  MIC against Streptococcus: 4 µg/mL (≈ 0.898 µM)
[4]; over the strains of Table 2
  MBC relative to MIC: around fourfold higher than MICs
[4]; range over S. aureus strains
  MIC against S. aureus: 2 to 16 µg/mL
[4]; range over all strains of Table 2
  MIC against selected standard and clinical Gram-positive bacteria: 2 to 16 µg/mL
[4]; range over all strains, converted from µg/mL
  MIC against selected standard and clinical Gram-positive bacteria: 0.45 to 3.6 µM
[5]; peptide incubated at 20 °C for 1 h, then MIC assay
  MIC, Heat (20 °C): 8 µg/mL (≈ 1.8 µM)
[5]; peptide incubated at 40 °C for 1 h, then MIC assay
  MIC, Heat (40 °C): 8 µg/mL (≈ 1.8 µM)
[5]; peptide incubated at 60 °C for 1 h, then MIC assay
  MIC, Heat (60 °C): 8 µg/mL (≈ 1.8 µM)
[5]; peptide incubated at 80 °C for 1 h, then MIC assay
  MIC, Heat (80 °C): 8 µg/mL (≈ 1.8 µM)
[5]; peptide incubated at 100 °C for 1 h, then MIC assay
  MIC, Heat (100 °C): > 64 µg/mL
[5]; peptide without treatment, reference value of the stability tests
  MIC, Control (without treatment): 8 µg/mL (≈ 1.8 µM)
[6]; 10 mg/kg i.p. daily for a week
  histology (HE) of heart, kidney, spleen, lung and liver: no hyperemia, bleeding, hyperplasia, or other lesions
  whole blood detection indexes and biochemical indexes compared with the control group: no significant differences
[6]; 10 mg/kg i.p. for 1 week
  difference in biochemical index versus control: < 4%
  difference in whole blood detection indexes versus control: < 4.5%
[7]; 1 × MIC
  LDH activity %: 24%
[7]; 2 × MIC
  LDH activity %: 16%
[7]; 4 × MIC
  LDH activity %: 16%
[8]
  intracellular bacteria killed: more than 70%
[9]; peptide incubated with 2.5 mM CaCl2 for 1 h at 37 °C
  MIC, CaCl2 (2.5 mM): 8 µg/mL
[9]; peptide incubated with 2.5 mM KCl for 1 h at 37 °C
  MIC, KCl (2.5 mM): 8 µg/mL
[9]; peptide incubated with 2.5 mM MgCl2 for 1 h at 37 °C
  MIC, MgCl2 (2.5 mM): 16 µg/mL
[9]; peptide incubated with 5 mM CaCl2 for 1 h at 37 °C
  MIC, CaCl2 (5 mM): 16 µg/mL
[9]; peptide incubated with 5 mM KCl for 1 h at 37 °C
  MIC, KCl (5 mM): 8 µg/mL
[9]; peptide incubated with 5 mM MgCl2 for 1 h at 37 °C
  MIC, MgCl2 (5 mM): 16 µg/mL
[9]; peptide incubated with 50 mM NaCl for 1 h at 37 °C
  MIC, NaCl (50 mM): 8 µg/mL
[9]; peptide incubated with 100 mM NaCl for 1 h at 37 °C
  MIC, NaCl (100 mM): 8 µg/mL
[9]; peptide incubated with 150 mM NaCl for 1 h at 37 °C
  MIC, NaCl (150 mM): 8 µg/mL
[9]; peptide incubated with 200 mM NaCl for 1 h at 37 °C
  MIC, NaCl (200 mM): 16 µg/mL
[9]; peptide incubated with 300 mM NaCl for 1 h at 37 °C
  MIC, NaCl (300 mM): 16 µg/mL
[9]; peptide incubated with […] CaCl2 for 1 h at 37 °C
  MIC, CaCl2 ([…]): 8 µg/mL
[9]; peptide incubated with […] KCl for 1 h at 37 °C
  MIC, KCl ([…]): 8 µg/mL
[9]; peptide incubated with […] MgCl2 for 1 h at 37 °C
  MIC, MgCl2 ([…]): 8 µg/mL
[10]; 1 × MIC, PAE = T − C
  PAE: 0.9 h
[10]; 2 × MIC, PAE = T − C
  PAE: 1.25 h
[10]; 4 × MIC, PAE = T − C
  PAE: 1.91 h
[10]; as given in the abstract, concentration not given
  PAE: 1.91 h

Source: PMC10787893, “Expression and characterization of the new antimicrobial peptide AP138L-arg26 anti Staphylococcus aureus” (Applied Microbiology and Biotechnology, 2024)
